The record followed here is the NIST ThermoML archive (doi:10.1016/j.fluid.2007.10.004).

Numbers after ± are expanded uncertainties.

The conditions of the data set: Capillary rise.

Regarding `CCCCCCn1cc[n+](C)c1.F[P-](F)(F)(F)(F)F` [1-hexyl-3-methylimidazolium hexafluorophosphate], the surface tension liquid-gas is, setting by setting: (298 K) 43.4 ± 1.3 mN/m; (303 K) 43 ± 1.2 mN/m; (308 K) 42.6 ± 1.2 mN/m; (313 K) 42.3 ± 1.2 mN/m; (318 K) 41.9 ± 1.2 mN/m; (323 K) 41.5 ± 1.2 mN/m. Also, the surface tension liquid-gas was determined as 41.1 ± 1.2 mN/m (328 K); 40.8 ± 1.2 mN/m (333 K); 40.5 ± 1.2 mN/m (338 K); 40.2 ± 1.2 mN/m (343 K); 39.8 ± 1.2 mN/m (348 K); 39.5 ± 1.2 mN/m (353 K). Also, the surface tension liquid-gas (358 K) worked out at 39.1 ± 1.2 mN/m and the surface tension liquid-gas (363 K) was found to be 38.8 ± 1.2 mN/m.

In the case of `CCCCCCn1cc[n+](C)c1.[Cl-]` [1-hexyl-3-methylimidazolium chloride], the surface tension liquid-gas by setting is: (298 K) 41.8 ± 1.2 mN/m; (303 K) 41.5 ± 1.2 mN/m; (308 K) 41.2 ± 1.2 mN/m; (313 K) 40.8 ± 1.2 mN/m; (318 K) 40.5 ± 1.2 mN/m; (323 K) 40.2 ± 1.2 mN/m. Further, the surface tension liquid-gas by setting is: (328 K) 40 ± 1.2 mN/m; (333 K) 39.8 ± 1.2 mN/m; (338 K) 39.4 ± 1.2 mN/m; (343 K) 39.1 ± 1.2 mN/m; (348 K) 38.8 ± 1.2 mN/m; (353 K) 38.5 ± 1.1 mN/m. The surface tension liquid-gas is 38.3 ± 1.1 mN/m (358 K); 37.9 ± 1.1 mN/m (363 K); 37.7 ± 1.1 mN/m (368 K); 37.4 ± 1.1 mN/m (373 K); 37.1 ± 1.1 mN/m (378 K); 36.8 ± 1.1 mN/m (383 K). In addition, the surface tension liquid-gas was determined as 36.5 ± 1.1 mN/m (388 K) and 36.2 ± 1.1 mN/m (393 K).
